This assay has as its system A2B5+ OPCs. In words: OPC differentiation assay. The conditions noted are these: 3-day incubation; for activity in the OPC assay at 2 micromolar / activity in the OPC assay at 20 micromolar: symbols not defined in the patent; for EC50: Rattus norvegicus, 72 h, MSD analysis. Format: cell-based, Sprague Dawley rats. Here is the method:
OPC Differentiation Assay
Enriched populations of oligodendrocytes were grown from post-natal day 2 (P2) female Sprague Dawley rats. The forebrain was dissected out and placed in Hank's buffered saline solution (HBSS; Invitrogen, Grand Island, N.Y.). The tissue was cut into 1 mm fragments and incubated at 37° C. for 15 minutes in 0.01% trypsin and 10 μg/mL DNase. Dissociated cells were plated on poly-L-lysine-coated T75 tissue culture flasks and grown at 37° C. for 10 days in Dulbecco's modified Eagle's medium (DMEM) with 20% fetal calf serum (Invitrogen). A2B5^+ OPCs were collected by shaking the flask overnight at 200 rpm and 37° C., resulting in a 95% pure population.
For the differentiation assay, 2 μM and 20 μM antagonist or the same concentrations of vehicle (DMSO) were applied to OPCs cultured in CNTF/T3 containing media. After a 3-day incubation, […], cell were lysed and then subjected to MSD (Meso Scale Discovery-R) analysis. EC50 was calculated by Prism using a nonlinear sigmoidal dose-response curvecells. Alternatively, cells were lysed in 80 μL lysis buffer (50 mM HEPES [4-(2-hydroxyethyl)-1-piperazineethanesulfonic acid], pH 7.5, 150 mM NaCl, 1.5 mM MgCl2, 1 mM ethylene glycol tetraacetic acid [EGTA], 1% Triton X-100 and 10% glycerol) for 30 minutes at 4° C. After centrifugation at 14,000 g for 15 minutes, the supernatants were boiled in Laemmli sample buffer, subjected to 4-20% SDS-PAGE, and analyzed by Western blotting with anti-MBP, anti-myelin-associated glycoprotein (MAG), or anti-beta actin antibodies. The secondary antibodies used were anti-mouse IgG-HRP (horseradish peroxidase) and anti-rabbit IgG-HRP respectively.

For `CCC1CCC(Oc2ccc3cc(CN4CCC(C(=O)O)CC4)ccc3c2)CC1` (stereo not drawn) [Example 30, 1-((6-(4-Ethylcyclohexyloxy)naphthalen-2-yl)methyl)piperidine-4-carboxylic acid], the “activity in the OPC assay at 2 micromolar” value (from here on “activity … at 2 micromolar”) was “+ to ++++”, the “activity in the OPC assay at 20 micromolar” value (“activity … at 20 micromolar” for short) is “+ to ++++” and the EC50 is below 10 µM.

For `CC(C)(C)[C@H]1CC[C@H](Oc2ccc3cc(CN4CCCC(C(=O)O)CC4)ccc3c2)CC1` (stereo partly drawn) [Example 60, 1-[6-(4-tert-Butyl-cyclohexyloxy)-naphthalen-2-ylmethyl]-perhydro-azepine-4-carboxylic acid], the “activity … at 2 micromolar” value is “+ to ++++” and the EC50 is below 10 µM.

As to `CC(C)(C)[C@H]1CC[C@H](Oc2ccc3cc(CN4CCC(O)(C(=O)O)CC4)ccc3c2)CC1` [Example 61, 1-[6-(4-tert-Butyl-cyclohexyloxy)-naphthalen-2-ylmethyl]-4-hydroxy-piperidine-4-carboxylic acid], the “activity … at 2 micromolar” value was “+ to ++++”, the “activity … at 20 micromolar” value is recorded as “+ to ++++” and the EC50 was below 10 µM.

As to `CC1CN(Cc2ccc3cc(O[C@H]4CC[C@H](C(C)(C)C)CC4)ccc3c2)CCC1C(=O)O` (stereo partly drawn) [Example 58, 1-[6-(4-tert-Butyl-cyclohexyloxy)-naphthalen-2-ylmethyl]-3-methyl-piperidine-4-carboxylic acid], the “activity … at 2 micromolar” value is recorded as “+ to ++++”, the “activity … at 20 micromolar” value is reported as “+ to ++++” and the EC50 was below 10 µM.

On to `CC(C)(C)[C@H]1CC[C@H](Oc2ccc3cc(CN4CCC(C(=O)O)CC4)ccc3n2)CC1` [Example 55, 1-((2-(trans-4-tert-Butylcyclohexyloxy)quinolin-6-yl)methyl)piperidine-4-carboxylic acid], for which the “activity … at 2 micromolar” value was “+ to ++++”.

For the compound `O=C(O)C1CCN(Cc2ccc3cc(OC4CCC5(CCCCC5)CC4)ccc3c2)CC1` [Example 85, 1-((6-(spiro[5.5]undecan-3-yloxy)naphthalen-2-yl)methyl)piperidine-4-carboxylic acid], the “activity … at 2 micromolar” value is reported as “+ to ++++” and the “activity … at 20 micromolar” value is listed as “+ to ++++”.

For `CC(C)(C)[C@H]1CC[C@H](Oc2ccc3cc(CN4CCC(C(=O)O)CC4)ncc3c2)CC1` [Example 75, 1-[7-(trans-4-tert-Butyl-cyclohexyloxy)-isoquinolin-3-ylmethyl]-piperidine-4-carboxylic acid], the “activity … at 2 micromolar” value was “+ to ++++” and the “activity … at 20 micromolar” value is on record as “+ to ++++”.

Turning to `CCC1(C(=O)O)CCN(Cc2ccc3cc(O[C@H]4CC[C@H](C(C)(C)C)CC4)ccc3c2)CC1` [Example 56, 1-[6-(4-tert-Butyl-cyclohexyloxy)-naphthalen-2-ylmethyl]-4-ethyl-piperidine-4-carboxylic acid], the “activity … at 2 micromolar” value is recorded as “+ to ++++”.

For the compound `CC1(C(=O)O)CCN(Cc2ccc3cc(O[C@H]4CC[C@H](C(C)(C)C)CC4)ccc3c2)CC1` [Example 77, 1-((6-(trans-4-tert-Butylcyclohexyloxy)naphthalen-2-yl)methyl)-4-methylpiperidine-4-carboxylic acid], the “activity … at 2 micromolar” value is “+ to ++++”, the “activity … at 20 micromolar” value is “+ to ++++” and the EC50 was below 10 µM.

Take `CC(C)(C)[C@H]1CC[C@H](Oc2ccc3nc(CN4CCC(C(=O)O)CC4)ccc3c2)CC1` [Example 42, 1-((6-(trans-4-tert-Butylcyclohexyloxy)quinolin-2-yl)methyl)piperidine-4-carboxylic acid]: the “activity … at 2 micromolar” value is on record as “+ to ++++”, the “activity … at 20 micromolar” value was “+ to ++++” and the EC50 is below 10 µM.

As for `O=C(O)C1CCN(Cc2ccc3cc(OC4CCOCC4)ccc3c2)CC1` [Example 83, 1-((6-(tetrahydro-2H-pyran-4-yloxy)naphthalen-2-yl)methyl)piperidine-4-carboxylic acid], the “activity … at 2 micromolar” value is reported as “+ to ++++” and the “activity … at 20 micromolar” value is given as “+ to ++++”.

For the compound `CC(C)(C)[C@H]1CC[C@H](Oc2ccc3cc(C(N4CCC(C(=O)O)CC4)C(F)(F)F)ccc3c2)CC1` (stereo partly drawn) [Example 22, 1-(1-(6-(trans-4-tert-Butylcyclohexyloxy)naphthalen-2-yl)-2,2,2-trifluoroethyl)piperidine-4-carboxylic acid], the “activity … at 2 micromolar” value is listed as “+ to ++++”, the “activity … at 20 micromolar” value is recorded as “+ to ++++” and the EC50 is below 10 µM.

In the case of `CC(C)(C)C1CCC(=Cc2ccc3cc(CN4CCC(C(=O)O)CC4)ccc3c2)CC1` (stereo not drawn) [Example 52, 1-((6-((4-tert-Butylcyclohexylidene)methyl)naphthalen-2-yl)methyl)piperidine-4-carboxylic acid], the “activity … at 20 micromolar” value was “+ to ++++”.

For `CCCC1(C(=O)O)CCN(Cc2ccc3cc(O[C@H]4CC[C@H](C(C)(C)C)CC4)ccc3c2)CC1` [Example 57, 1-[6-(4-tert-Butyl-cyclohexyloxy)-naphthalen-2-ylmethyl]-4-propyl-piperidine-4-carboxylic acid], the “activity … at 2 micromolar” value was “+ to ++++” and the “activity … at 20 micromolar” value is on record as “+ to ++++”.

For `CC[C@H]1CC[C@H](Oc2ccc3cc(CN4CCC(C(=O)O)CC4)ccc3c2)CC1` [Example 38, 1-((6-(trans-4-Ethylcyclohexyloxy)naphthalen-2-yl)methyl)piperidine-4-carboxylic acid], the “activity … at 20 micromolar” value was “+ to ++++”.

Compound `CC(C)C1CCC(Oc2ccc3cc(CN4CCC(C(=O)O)CC4)ccc3c2)CC1` (stereo not drawn) [Example 24, 1-((6-(4-Isopropylcyclohexyloxy)naphthalen-2-yl)methyl)piperidine-4-carboxylic acid] gave an EC50 below 10 µM.

As for `CC(C)(C)[C@H]1CC[C@H](Oc2ccc3cc(CN4CCC(CC(=O)O)CC4)ccc3c2)CC1` [Example 62, {1-[6-(4-tert-Butyl-cyclohexyloxy)-naphthalen-2-ylmethyl]-piperidin-4-yl}-acetic acid], the “activity … at 2 micromolar” value is reported as “+ to ++++” and the “activity … at 20 micromolar” value is on record as “+ to ++++”.

`CC(C)(C)[C@H]1CC[C@H](Oc2ccc3cc(CN4CCC(C(=O)O)(c5ccccc5)CC4)ccc3c2)CC1` [Example 59, 1-[6-(4-tert-Butyl-cyclohexyloxy)-naphthalen-2-ylmethyl]-4-phenyl-piperidine-4-carboxylic acid]: the “activity … at 2 micromolar” value is “+ to ++++”.

Consider `CC(C)(C)[C@H]1CC[C@H](Oc2ccc3cc(CN4CCCCC4C(=O)O)ccc3c2)CC1` (stereo partly drawn) [Example 88, 1-[6-(4-tert-Butyl-cyclohexyloxy)-naphthalen-2-ylmethyl]-piperidine-2-carboxylic acid], for which the “activity … at 2 micromolar” value is recorded as “+ to ++++”.

Turning to `O=C(O)C1CCN(Cc2ccc3cc(OC4CCCCCC4)ccc3c2)CC1` [Example 81, 1-((6-(cycloheptyloxy)naphthalen-2-yl)methyl)piperidine-4-carboxylic acid], the “activity … at 20 micromolar” value is “+ to ++++”.

On to `CC[C@H]1CC[C@@H](Oc2ccc3cc(CN4CCC(C(=O)O)CC4)ccc3c2)CC1` [Example 36, 1-((6-(cis-4-Ethylcyclohexyloxy)naphthalen-2-yl)methyl)piperidine-4-carboxylic acid], for which the “activity … at 2 micromolar” value is “+ to ++++” and the “activity … at 20 micromolar” value is given as “+ to ++++”.

Regarding `O=C(O)C1CCN(Cc2ccc3cc(OC4CCC5(CCCC5)CC4)ccc3c2)CC1` [Example 34, 1-((6-(Spiro[4.5]decan-8-yloxy)naphthalen-2-yl)methyl)piperidine-4-carboxylic acid], the “activity … at 20 micromolar” value is “+ to ++++”.

With `CC(C)(C)[C@H]1CC[C@H](Oc2ccc3cc(C(=O)N4CCC(C(=O)O)CC4)ccc3c2)CC1` [Example 48, 1-(6-(trans-4-tert-Butylcyclohexyloxy)-2-naphthoyl)piperidine-4-carboxylic acid], the “activity … at 2 micromolar” value was “+ to ++++” and the “activity … at 20 micromolar” value is “+ to ++++”.

On to `CCCCC1CCC(Oc2ccc3cc(CN4CCC(C(=O)O)CC4)ccc3c2)CC1` (mixture of isomers) [Example 32, 1-((6-(4-Butylcyclohexyloxy)naphthalen-2-yl)methyl)piperidine-4-carboxylic acid], for which the “activity … at 2 micromolar” value is “+ to ++++”, the “activity … at 20 micromolar” value is reported as “+ to ++++” and the EC50 is below 10 µM.

With `O=C(O)C1CCN(Cc2ccc3cc(OC4CCC5(CCC5)CC4)ccc3c2)CC1` [Example 87, 1-((6-(spiro[3.5]nonan-7-yloxy)naphthalen-2-yl)methyl)piperidine-4-carboxylic acid], the “activity … at 20 micromolar” value is reported as “+ to ++++”.

Turning to `CC(C)(C)[C@H]1CC[C@H](Oc2ccc3nc(CN4CCC(C(=O)O)CC4)ncc3c2)CC1` [Example 15, 1-((6-(trans-4-tert-Butylcyclohexyloxy)quinazolin-2-yl)methyl)piperidine-4-carboxylic acid], the “activity … at 2 micromolar” value was “+ to ++++”.
